# Reference: patent US20210311050A1, “TARGETING PATHOGENIC B CELLS IN AUTOIMMUNITY” (Research Foundation for the STATE UNIVERSITY OF NEW YORK, priority 2018, published 2021)
# Entries after “also recorded” stand apart in the source; their conditions may differ.
# How the values were obtained:
# CD11c^+ T-bet^+ B cells = assay: Depletion of splenic CD11c+ T-bet+ B cells in E. muris-infected mice (flow cytometry); format: in vivo, C57BL/6 mice
# [1] = tested on: CD11c^+ CD19^+ B cells (also T-bet^+); assay: Agonist treatment of E. muris-infected wild-type versus B cell-specific A2aR KO mice (flow cytometry of spleen cells); format: in vivo; settings: 30 days post-infection, treated every other day for 7 days
# Description: FIGS. 3A-3B. […] CD11c and CD19 flow cytometry data from (A) Wild type mice (B) mice that lacked A2aR only on B cells. The mice were infected with E. muris; 30 days post-infection wild-type or MB1-cre×A2aR^fl/fl (B cell-specific A2aR KO) mice were treated with CGS21680 every other day for 7 days, at which time spleen cells were analyzed by flow cytometry. CD11c^+ CD19^+ B cells (also T-bet^+) were eliminated in the wild-type mice (A), but not in the B cell-specific A2aR KO mice (B). The data shown are representative of several experiments.
# [2] = tested on: CD11c^+ CD19^+ or T-bet^+ CD19^+ B cells; assay: Depletion of T-bet+ B cells in lupus-prone SLE1.2.3 mice (flow cytometry of spleen cells); format: in vivo, SLE1.2.3 (B6.NZMs^Sle1/Sle2/Sle3) mice; settings: nine-month old SLE mice, treated every other day for 7 days, n=6
# Description: FIGS. 4A-4D. Agonist treatment eliminated T-bet+ B cells in lupus-prone SLE1.2.3 (B6.NZMs^Sle1/Sle2/Sle3) mice. (A) CD11c and CD19 flow cytometry data from vehicle treated mice. (B) CD11c and CD19 flow cytometry data from A2aR agonist (CGS21680)-treated mice. (C) T-bet and CD19 flow cytometry data from vehicle-treated mice. (D) T-bet and CD19 flow cytometry data from agonist (CGS21680)-treated mice. Nine-month old SLE mice were treated with vehicle, or CGS21680, every other day for 7 days, at which time spleen cells were analyzed by flow cytometry. CD11c^+ CD19^+ ((A) and (B)) or T-bet^+ CD19^+ ((C) and (D)) B cells were analyzed. […] The data shown are representative of an experiment where n=6.
# CD11c^+ CD19^+ B cells [3] = assay: Depletion of T-bet+ B cells in lupus-prone MRL/lpr mice (flow cytometry of spleen cells); format: in vivo, MRL/lpr (MRL/MpJ-Fas^lpr/J) mice; settings: 12 to 13 week old MRL/lpr mice, treated every other day for 7 days
# Description: FIGS. 5A-5B. Agonist treatment eliminated T-bet^+ B cells in lupus-prone MRL/lpr (MRL/MpJ-Fas^lpr/J) mice. CD11c and CD19 flow cytometry data from (A) vehicle-treated mice and (B) A2aR agonist (CGS21680)-treated mice. 12 to 13 week old MRL/lpr mice were treated with vehicle, or CGS21680, every other day for 7 days, at which time spleen cells were analyzed by flow cytometry.
# CD11c^+ CD19^+ B cells [4] = assay: In vitro agonist treatment of T cell-depleted spleen cells from E. muris-infected mice; format: cell-based; settings: 48 hours
# Description: FIGS. 6A-6B. In vitro agonist treatment eliminated T-bet^+ B cells. CD11c and CD19 flow cytometry data using B cells isolated from (A) vehicle-treated splenocytoes and (B) A2aR agonist (CGS21680)-treated splenocytes. C57BL/6 mice were infected with E. muris; 30 days post-infection, T cell-depleted spleen cells were incubated in cell culture medium treated with vehicle, or CGS21680 (1 μM), for 48 hours. Approximately 50% of the CD11c^+ CD19^+ B cells were depleted by the agonist.
# FIGS. 7A-7B. In vitro Regadenoson treatment eliminated T-bet^+ B cells. (A) vehicle treated splenocytes and (B) agonist (Regadenoson)-treated splenocytes. Mice were infected with E. muris; 44 days post-infection, T cell-depleted spleen cells were incubated in medium with or without Regadenson (10 μM), for 48 hours. Approximately 30% of the CD11c^+ CD19^+ B cells were depleted by Regadenoson in vitro.
# [5] = tested on: T-bet+ Age-related B cells (ABCs); assay: Depletion of T-bet+ Age-related B cells (ABCs) in aged mice; format: in vivo; settings: administered at day 0, 4 and 6; sacrificed day 7; flow cytometry
# Description: FIG. 8A-8C. T-bet+ Age-related B cells (ABCs) were depleted in aged mice upon CGS21680 treatment. CD11c and CD19 flow cytometry data from (A) vehicle-treated and (B) A2aR agonist-(CGS21680) treated aged mice. CGS21680 was administered at day 0, 4 and 6. Mice were sacrificed on day 7 and ABCs were identified using flow cytometry. (C) Quantification of the data in (A) and (B).
# [6] = tested on: anti-nuclear antibodies (ANAs); assay: Anti-nuclear antibodies in lupus-prone MRL/lpr mice; format: in vivo; settings: once weekly from 9 weeks of age, sacrificed at 15 weeks of age
# From the text: FIG. 9. […] CGS21680-treated mice had much lower amounts of anti-nuclear antibodies (ANAs). ANAs are a signature of disease in lupus mice.
Structure (SMILES),"CD11c^+ T-bet^+ B cells in spleen after cessation of treatment (CD11c^+ T-bet^+ B cells; 2.5 mg/kg daily for 7 days from day 30, spleen harvested 12 days following cessation (day 48), p<0.0001 vs vehicle)","CD11c^+ T-bet^+ B cells in spleen after agonist treatment (CD11c^+ T-bet^+ B cells; E. muris infection day 0, 2.5 mg/kg daily for 7 days from day 30, spleen harvested day 37, p<0.0001 vs vehicle, 2.5 mg/kg)","CD11c^+ CD19^+ B cells (also T-bet^+) in spleen, B cell-specific A2aR KO mice ([1]; MB1-cre×A2aR^fl/fl mice)","CD11c^+ CD19^+ B cells (also T-bet^+) in spleen, wild-type mice ([1]; wild-type mice)",CD11c^+ CD19^+ or T-bet^+ CD19^+ B cells in spleen [2],CD11c^+ CD19^+ B cells in spleen (CD11c^+ CD19^+ B cells [3]),"CD11c^+ CD19^+ B cells depleted in vitro (CD11c^+ CD19^+ B cells [4]; 1 μM, 30 days post-infection)",T-bet+ Age-related B cells (ABCs) in aged mice [5],amounts of anti-nuclear antibodies (ANAs) [6],"number of Tbet^+ B cells in splenocytes (CD11c^+ T-bet^+ B cells; 2.5 mg/kg every other day for 7 days from day 30 post-infection, analysed day 37, P=0.0049 vs vehicle)","CD11c^+ CD19^+ B cells depleted in vitro (CD11c^+ CD19^+ B cells [4]; 10 μM, 44 days post-infection)"
CCNC(=O)[C@H]1O[C@@H](n2cnc3c(N)nc(NCCc4ccc(CCC(=O)O)cc4)nc32)[C@H](O)[C@@H]1O [CGS21680],prolonged depletion; also recorded: Significant cell depletion,largely absent; also recorded: major reduction,did not eliminate,eliminated,largely eliminated,Most of the CD11c^+ CD19^+ B cells were eliminated,Approximately 50%,depleted,much lower,,
CNC(=O)c1cnn(-c2nc(N)c3ncn([C@@H]4O[C@H](CO)[C@@H](O)[C@H]4O)c3n2)c1 [Regadenoson],,,,,,,,,,reduced,Approximately 30%
